Measurements taken from patent US7713994B2 (Wyeth LLC, priority 2005, dated 2010).
Like-named read-outs stand apart in the source and are kept apart here.

Columns and labels:
cyclin D1/cdk 4 enzyme = target: T1, cyclin D1/cdk 4 enzyme (Homo sapiens, UniProt P11802); test: CDK4 ELISA kinase assay (phospho-Rb ser 795 detection); format: biochemical
T1 construct: made in house; host or cells: Sf9 insect cells, recombinant baculovirus
Outline: (§1)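 GST-Rb C-terminal fragment coated on wells; kinase reaction: 200 μM ATP, 0.5 mg/ml BSA, HEPES pH 7.5, 10 mM MgCl2, baculovirus/Sf9 cyclin-CDK, 30° C, 1 h. Readout anti-phospho-Rb Ser795, HRP, TMB, A450. Test compound 10 ug/ml final.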

cyclin E/CDK2 enzyme = target: T2, cyclin E/CDK2 enzyme (Homo sapiens, UniProt P24941); test: CDK2 ELISA kinase assay (phospho-Rb ser 795 detection); format: biochemical
T2 construct: made in house; host or cells: Sf9 insect cells, recombinant baculovirus
Outline: as §1

cyclin B/CDK1 enzyme = target: T3, cyclin B/CDK1 enzyme (Homo sapiens, UniProt P06493); test: CDK1 ELISA kinase assay (phospho-Rb ser 795 detection); format: biochemical
T3 construct: purchased New England BioLabs; host or cells: Sf9 insect cells, recombinant baculovirus
Outline: as §1

BT474 = test: Cytotoxicity assay (SRB), BT474; format: cell-based; conditions: Homo sapiens, BT-474, 144 h, read-out: In Vitro Cellular Activity IC50 BT474
Outline: (§2)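 Cells seeded overnight at 37 °C, 7% CO2 (BT474 12000, HCT-116 4000, LoVo and MCF-7 6000 cells/well) in RPMI 1640 with 5% FBS, then exposed to compound dilutions for 3 days (BT474 6 days). Survival versus untreated controls by TCA fixation and SRB staining, absorbance 540 nm.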

HCT-116 = test: Cytotoxicity assay (SRB), HCT-116; format: cell-based; conditions: Homo sapiens, HCT-116, 72 h, read-out: In Vitro Cellular Activity IC50 HCT116
Outline: as §2

LoVo = test: Cytotoxicity assay (SRB), LoVo; format: cell-based; conditions: Homo sapiens, LoVo, 72 h, read-out: In Vitro Cellular Activity IC50 LOVO
Outline: as §2

MCF-7 = test: Cytotoxicity assay (SRB), MCF-7; format: cell-based; conditions: Homo sapiens, MCF7, 72 h, read-out: In Vitro Cellular Activity IC50 MCF-7
Outline: as §2

[1] = In Vitro Enzyme Assays, 200 μM ATP, read-out: CDK4 IC50
[2] = In Vitro Enzyme Assays, read-out: CDK2 IC50
[3] = In Vitro Enzyme Assays, read-out: CDK1 IC50
[4] = In Vitro Enzyme Assay, cyclin D1/cdk 4, read-out: CDK4 IC50
[5] = In Vitro Enzyme Assay, cyclin E/CDK2, read-out: CDK2 IC50
[6] = In Vitro Enzyme Assay, cyclin B/CDK1, read-out: CDK1 IC50

T1 sequence (P11802 whole entry, species assumed): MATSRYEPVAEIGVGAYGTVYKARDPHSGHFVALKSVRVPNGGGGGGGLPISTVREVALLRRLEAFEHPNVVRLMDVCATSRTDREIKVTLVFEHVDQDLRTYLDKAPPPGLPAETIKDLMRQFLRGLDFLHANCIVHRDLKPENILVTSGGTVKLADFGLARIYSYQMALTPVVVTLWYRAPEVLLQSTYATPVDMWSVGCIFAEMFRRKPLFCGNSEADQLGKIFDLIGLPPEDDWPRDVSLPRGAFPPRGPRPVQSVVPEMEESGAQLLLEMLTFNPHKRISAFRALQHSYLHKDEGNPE
T1 sequence (P24385 whole entry partner, species assumed): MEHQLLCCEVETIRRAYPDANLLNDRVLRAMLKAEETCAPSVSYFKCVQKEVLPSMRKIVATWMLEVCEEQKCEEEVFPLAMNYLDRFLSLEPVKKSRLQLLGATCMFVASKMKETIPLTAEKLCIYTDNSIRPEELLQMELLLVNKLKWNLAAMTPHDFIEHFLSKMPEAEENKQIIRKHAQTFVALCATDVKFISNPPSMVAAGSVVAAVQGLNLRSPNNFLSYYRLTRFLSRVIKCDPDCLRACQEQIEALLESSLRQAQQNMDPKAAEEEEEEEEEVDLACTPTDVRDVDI
T3 sequence (P06493 whole entry): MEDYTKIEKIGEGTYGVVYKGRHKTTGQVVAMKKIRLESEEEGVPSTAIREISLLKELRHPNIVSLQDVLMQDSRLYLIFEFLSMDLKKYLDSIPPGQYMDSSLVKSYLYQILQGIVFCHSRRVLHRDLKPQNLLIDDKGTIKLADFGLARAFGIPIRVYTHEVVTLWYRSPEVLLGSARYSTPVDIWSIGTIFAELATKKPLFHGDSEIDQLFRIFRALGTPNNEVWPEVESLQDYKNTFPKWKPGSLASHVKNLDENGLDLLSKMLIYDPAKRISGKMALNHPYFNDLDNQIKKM
T3 sequence (P14635 whole entry partner): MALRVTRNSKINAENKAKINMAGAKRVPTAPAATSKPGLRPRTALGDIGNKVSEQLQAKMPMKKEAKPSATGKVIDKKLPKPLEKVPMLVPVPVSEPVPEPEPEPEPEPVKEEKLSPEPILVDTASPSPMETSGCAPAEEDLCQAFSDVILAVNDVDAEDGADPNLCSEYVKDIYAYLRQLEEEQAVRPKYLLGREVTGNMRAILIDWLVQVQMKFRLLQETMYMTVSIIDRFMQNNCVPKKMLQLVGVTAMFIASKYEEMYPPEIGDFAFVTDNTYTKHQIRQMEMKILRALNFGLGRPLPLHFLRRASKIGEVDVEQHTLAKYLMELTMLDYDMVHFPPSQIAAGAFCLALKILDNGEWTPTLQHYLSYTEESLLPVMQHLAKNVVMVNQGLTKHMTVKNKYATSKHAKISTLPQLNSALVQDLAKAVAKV

Row | Compound | IC50 (cyclin D1/cdk 4 enzyme; [1]) [µM] | IC50 (cyclin E/CDK2 enzyme; [2]) [µM] | IC50 (cyclin B/CDK1 enzyme; [3]) [µM] | IC50 (BT474; BT474 cells, SRB, 6 days) [µM] | IC50 (HCT-116; HCT116 cells, SRB, three days) [µM] | IC50 (LoVo; LoVo cells, SRB, three days) [µM] | IC50 (MCF-7; MCF-7 cells, SRB, three days) [µM] | melting point | IC50 (cyclin D1/cdk 4 enzyme; [4]) [µM] | IC50 (cyclin E/CDK2 enzyme; [5]) [µM] | IC50 (cyclin B/CDK1 enzyme; [6]) [µM] | IC50 (BT474; BT474 cells, 6 days, SRB) [µM] | IC50 (HCT-116; HCT116 cells, 3 days, SRB) [µM] | IC50 (LoVo; LoVo cells, 3 days, SRB) [µM] | IC50 (MCF-7; MCF-7 cells, 3 days, SRB) [µM] | IC50 (BT474) [µM] | IC50 (HCT-116) [µM] | IC50 (LoVo) [µM] | IC50 (MCF-7) [µM]
1 | CC(=O)Nc1ccc(CN/C=C2\C(=O)NC(=O)c3ccc(I)cc32)cc1OC(C)=O [Example 146, 2-(Acetylamino)-5-({[(Z)-(6-iodo-1,3-dioxo-2,3-dihydroisoquinolin-4(1H)-′ylidene)methyl]amino}methyl)phenyl acetate] | 0.1 | 8.6 | > 50 | 0.49 | 0.66 | 0.86 | 2.7 | 264 to 265 °C | – | – | – | – | – | – | – | – | – | – | –
2 | O=C1NC(=O)c2ccc(Br)cc2/C1=C/Nc1ccc(CN2CCC(CCO)CC2)cc1 [Example 489, (4Z)-6-Bromo-4-{[(4-{[4-(2-hydroxyethyl)piperidin-1-yl]methyl}phenyl)amino]methylene}isoquinoline-1,3(2H,4H)-dione] | – | – | – | – | – | – | – | 200 to 201 °C | 1.3 | > 50 | > 50 | 6.25 | 4.04 | 4.59 | 3.43 | – | – | – | –
3 | CC(=O)Oc1ccc(CN/C=C2\C(=O)NC(=O)c3ccc(Br)cc32)cc1OC(C)=O [Example 54, 2-(Acetyloxy)-4-({[(Z)-(6-bromo-1,3-dioxo-2,3-dihydroisoquinolin-4(1H)-ylidene)methyl]-amino}methyl)phenyl acetate] | 0.16 | > 50 | > 50 | 6.5 | 6.4 | 5.9 | 9.2 | 239 to 240 °C | – | – | – | – | – | – | – | – | – | – | –
4 | CN1CCC(c2ccc(N/C=C3\C(=O)NC(=O)c4ccc(-c5ccsc5)cc43)cc2)CC1 [Example 327, (4Z)-4-({[4-(1-Methylpiperidin-4-yl)phenyl]amino}methylene)-6-thien-3-ylisoquinoline-1,3(2H,4H)-dione] | 0.06 | > 50 | > 50 | 2.5 | 1.5 | 2.9 | 2.2 | 217 to 218 °C | – | – | – | – | – | – | – | – | – | – | –
5 | CN1CCN(c2ccc(N/C=C3\C(=O)NC(=O)c4ccc(Br)cc43)nc2)CC1 [Example 442, (4Z)-6-Bromo-4-({[5-(4-methylpiperazin-1-yl)pyridin-2-yl]amino}methylene)isoquinoline-1,3(2H,4H)-dione] | 3.3 | 25.3 | 15.8 | – | – | – | – | 191 to 192 °C | – | – | – | 3.7 | 1.1 | 4.1 | 2.4 | – | – | – | –
6 | CC1CCCN1Cc1ccc(N/C=C2\C(=O)NC(=O)c3ccc(Br)cc32)cc1 (centres unmarked) [Example 287, (4Z)-6-Bromo-4-[({4-[(2-methylpyrrolidin-1-yl)methyl]phenyl}amino)methylene]-isoquinoline-1,3(2H,4H)-dione] | 1.6 | > 50 | > 50 | 1.3 | 4.2 | 5.4 | 1.7 | 183 to 184 °C | – | – | – | – | – | – | – | – | – | – | –
7 | O=C1NC(=O)c2ccc(-c3ccc(C(F)(F)F)cc3)cc2/C1=C/Nc1ccc(CN2CCCC2)cc1 [Example 282, (4Z)-4-({[4-(Pyrrolidin-1-ylmethyl)phenyl]amino}methylene)-6-[4-(trifluoromethyl)phenyl]isoquinoline-1,3(2H,4H)-dione] | 27.7 | > 50 | > 50 | 3 | 1.1 | 2.7 | 1.1 | 176 to 177 °C | – | – | – | – | – | – | – | – | – | – | –
8 | CN1CCN(c2ccc(N/C=C3\C(=O)NC(=O)c4ccc(-c5ccoc5)cc43)cc2F)CC1 [Example 297, (4Z)-4-({[3-Fluoro-4-(4-methylpiperazin-1-yl)phenyl]amino}methylene)-6-(3-furyl)isoquinoline-1,3(2H,4H)-dione] | 0.08 | > 50 | > 50 | 1.2 | 2.2 | 2 | 0.95 | 203 to 204 °C | – | – | – | – | – | – | – | – | – | – | –
9 | COc1cc(CN/C=C2\C(=O)NC(=O)c3ccc(-c4ccoc4)cc32)cc(O)c1OC [Example 87] | 0.0008 | 8.1 | 1.2 | 1.3 | 4.2 | 4.2 | 4.1 | 263 to 264 °C | – | – | – | – | – | – | – | – | – | – | –
10 | O=C1NC(=O)c2ccc(-c3ccc(F)cc3)cc2/C1=C/Nc1ccc(CN2CCCC2)cc1 [Example 127, (4Z)-6-(4-Fluorophenyl)-4-({[4-(pyrrolidin-1-ylmethyl)phenyl]amino}methylene)isoquinoline-1,3(2H,4H)-dione] | 0.37 | > 50 | > 50 | 1.4 | 1.3 | 2.9 | 1.4 | 152 to 153 °C | – | – | – | – | – | – | – | – | – | – | –
11 | C[C@@H]1CN(c2c(F)cc(N/C=C3\C(=O)NC(=O)c4ccc(Br)cc43)cc2F)C[C@H](C)N1 [Example 381, (4Z)-6-Bromo-4-[({4-[(3R,5S)-3,5-dimethylpiperazin-1-yl]-3,5-difluorophenyl}amino)-methylene]isoquinoline-1,3(2H,4H)-dione] | 13.2 | 3.1 | > 50 | 3 | 2 | 3.4 | 4.3 | 187 to 188 °C | – | – | – | – | – | – | – | – | – | – | –
12 | COc1cnc(CN/C=C2\C(=O)NC(=O)c3ccc(Br)cc32)cc1O [Example 332, 6-Bromo-4-{[(4-hydroxy-5-methoxy-pyridin-2-ylmethyl)-amino]-methylene}-4H-isoquinoline-1,3-dione] | 0.12 | 2.2 | 21.3 | 0.54 | 3.5 | 1.3 | 3.2 | 209 to 211 °C (dec.) | – | – | – | – | – | – | – | – | – | – | –
13 | Nc1ccc(CN/C=C2\C(=O)NC(=O)c3ccc(-c4ccc(F)cc4)cc32)cc1O [Example 134, (4Z)-4-{[(4-Amino-3-hydroxybenzyl)amino]methylene}-6-(4 fluorophenyl)isoquinoline-1,3(2H,4H)-dione] | 0.04 | 13.2 | > 50 | 11 | 13 | 11 | 12 | 227 to 228 °C | – | – | – | – | – | – | – | – | – | – | –
14 | C[C@@H]1CN(c2cncc(N/C=C3\C(=O)NC(=O)c4ccc(-c5ccoc5)cc43)c2)C[C@H](C)N1 [Example 346, (4Z)-4-[({5-[(3R,5S)-3,5-Dimethylpiperazin-1-yl]pyridin-3-yl}amino)methylene]-6-(3-furyl)isoquinoline-1,3(2H,4H)-dione] | 0.18 | > 50 | > 50 | 0.96 | 1.9 | 2.1 | 1.4 | 175 to 176 °C | – | – | – | – | – | – | – | – | – | – | –
15 | O=C1NC(=O)c2ccc(Br)cc2/C1=C/Nc1ccc(CN2CCCC2)cc1 [Example 59, (4Z)-6-Bromo-4-({[4-(pyrrolidin-1-ylmethyl)phenyl]amino}methylene)isoquinoline-1,3(2H,4H)-dione] | 0.23 | 25.2 | > 50 | – | – | – | – | 165 to 166 °C | – | – | – | – | – | – | – | 6.3 | 4.7 | 6.1 | 4.13
16 | C[C@@H]1CN(c2ccc(N/C=C3\C(=O)NC(=O)c4ccc(Br)cc43)nc2)C[C@H](C)N1 [Example 469, (4Z)-6-Bromo-4-[({5-[(3R,5S)-3,5-dimethylpiperazin-1-yl]pyridin-2-yl}amino)methylene]isoquinoline-1,3(2H,4H)-dione] | – | – | – | – | – | – | – | 245 to 246 °C | 2.2 | 17.6 | 2.7 | 2.2 | 0.8 | 1.2 | 2.9 | – | – | – | –
